Assay results published in patent publication US8193189B2, “Quinoxaline derivatives as tyrosine kinase activity inhibitors” (Novartis AG, priority 2007, dated 2012).

Tests used:
Format in all cases: biochemical
GST-JAK2(808-1132) = biological target: T1, GST-JAK2(808-1132) (Homo sapiens, UniProt O60674); test: EPK JAK-family kinases profiling assay (Caliper mobility shift), JAK2; settings: ATP 20 μM, 1.8 nM kinase
T1 construct: GST-JAK2(808-1132); purchased Invitrogen (Carlsbad, USA) #4288
Method in brief: (§1)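 Turnover was read as substrate/product ratio after mobility-shift capillary-like separation of each reaction, run for 60 min at 30 °C with GST-tagged kinase domain, labelled peptide and ATP, and terminated with EDTA stop buffer.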

GST-TYK2(888-1187) = biological target: T2, GST-TYK2(888-1187) (Homo sapiens, UniProt P29597); test: EPK JAK-family kinases profiling assay (Caliper mobility shift), TYK2; settings: ATP 30 μM, 40 nM kinase
T2 construct: GST-TYK2(888-1187); made in house
T2 sequence (P29597 888-1187): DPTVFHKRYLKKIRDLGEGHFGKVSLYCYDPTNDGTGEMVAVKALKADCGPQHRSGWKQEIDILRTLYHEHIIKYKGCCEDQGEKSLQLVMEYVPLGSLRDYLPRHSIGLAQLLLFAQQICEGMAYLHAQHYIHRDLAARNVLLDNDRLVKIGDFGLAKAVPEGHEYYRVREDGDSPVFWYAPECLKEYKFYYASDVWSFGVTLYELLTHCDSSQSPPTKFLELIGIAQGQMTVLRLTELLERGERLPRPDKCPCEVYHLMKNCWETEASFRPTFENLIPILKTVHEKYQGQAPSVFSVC
Source text: All four kinases of the JAK-family kinases were used as purified recombinant GST-fusion proteins, containing the active kinase domains. GST-JAK1(866-1154), GST-JAK3(811-1124), and GST-TYK2(888-1187) were expressed and purified by affinity chromatography at the EPK biology unit. GST-JAK2(808-1132) was purchased from Invitrogen (Carlsbad, USA, #4288).
The kinase assays were based on the Caliper mobility shift assay using the LabChip 3000 systems. This technology is similar to capillary electrophoresis and uses charge driven separation of substrate and product in a microfluidic chip.
All kinase reactions were performed in 384 well microtiter plates in a total reaction volume of 18 μl. The assay plates were prepared with 0.1 μl per well of test compound in the appropriate test concentration, as described under the section “preparation of compound dilutions”. The reactions were started by combining 9 μl of substrate mix (consisting of peptide and ATP) with 9 μl of kinase dilution. The reactions were incubated for 60 minutes at 30° C. and stopped by adding 70 μl of stop buffer (100 mM Hepes, 5% DMSO, 0.1% Coating reagent, 10 mM EDTA, 0.015% Brij 35).
Fluorescently labeled synthetic peptides were used as substrates in all reactions. […] Specific assay conditions are described in Table 1:
The terminated reactions were transferred to the Caliper LabChip 3000 reader and the turnover of each reaction was measured by determining the substrate/product ratio.
Test compounds were dissolved in DMSO (10 mM) and transferred into 1.4 mL flat bottom or V-shaped Matrix tubes carrying a unique 2D matrix chip by individual compound hubs. The numbers of these chips were distinctively linked to the individual compound identification numbers. The stock solutions were stored at −20° C. if not used immediately. For the test procedure the vials were defrosted and identified by a scanner whereby a working sheet was generated that guided the subsequent working steps.
Compound dilutions were made in 96 well plates. This format enabled the assay of maximally 40 individual test compounds at 8 concentrations (single points) including 4 reference compounds. The dilution protocol included the production of pre-dilution plates, master plates and assay plates:
Pre-dilution plates: 96 polypropylene well plates were used as pre-dilution plates. A total of 4 pre-dilution plates were prepared including 10 test compounds each on the plate positions A1-A10, one standard compound at A11 and one DMSO control at A12. All dilution steps were done on a HamiltonSTAR robot.
Master plates: 100 μL of individual compound dilutions including standard compound and controls of the 4 “pre-dilution plates” were transferred into a 384 “master plate” including the following concentrations 1′820, 564, 182, 54.6, 18.2, 5.46, 1.82 and 0.546 μM, respectively in 90% of DMSO.
Assay plates: Identical assay plates were then prepared by pipetting 100 nL each of compound dilutions of the master plates into 384-well “assay plates”. […] The preparation of the master plates were handled by the Matrix PlateMate Plus robot and replication of assay plates by the HummingBird robot.

GST-JAK1(866-1154) = biological target: T3, GST-JAK1(866-1154) (Homo sapiens, UniProt P23458); test: EPK JAK-family kinases profiling assay (Caliper mobility shift), JAK1; settings: ATP 40 μM, 50 nM kinase
T3 construct: GST-JAK1(866-1154); made in house
Method in brief: as §1

T1 sequence (O60674 808-1132): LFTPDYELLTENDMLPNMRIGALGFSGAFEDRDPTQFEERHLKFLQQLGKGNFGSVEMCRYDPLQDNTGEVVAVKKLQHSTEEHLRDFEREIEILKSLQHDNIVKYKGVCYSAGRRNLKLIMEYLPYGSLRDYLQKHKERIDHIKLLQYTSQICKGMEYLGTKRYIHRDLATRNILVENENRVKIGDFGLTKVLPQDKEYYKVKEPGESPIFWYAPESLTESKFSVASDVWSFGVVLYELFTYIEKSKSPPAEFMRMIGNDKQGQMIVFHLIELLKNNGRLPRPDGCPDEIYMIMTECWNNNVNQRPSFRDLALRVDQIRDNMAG
T3 sequence (P23458 866-1154): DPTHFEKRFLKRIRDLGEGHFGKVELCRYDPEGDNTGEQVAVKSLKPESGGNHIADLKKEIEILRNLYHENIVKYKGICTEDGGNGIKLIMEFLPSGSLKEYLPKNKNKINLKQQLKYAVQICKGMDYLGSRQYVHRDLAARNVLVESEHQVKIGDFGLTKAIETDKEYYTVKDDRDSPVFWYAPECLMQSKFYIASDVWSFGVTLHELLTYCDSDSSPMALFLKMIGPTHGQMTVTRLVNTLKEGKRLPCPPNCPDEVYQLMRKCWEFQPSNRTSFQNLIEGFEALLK

| IC50 (GST-JAK2(808-1132)) [nM] | IC50 (GST-TYK2(888-1187)) [nM] | IC50 (GST-JAK1(866-1154)) [nM] | Compound |
| --- | --- | --- | --- |
| 140 | 6400 | 3600 | Cc1nn(C2CCNCC2)c(C)c1-c1cnc2cccc(-c3ccc(CN4CCS(=O)(=O)CC4)cc3)c2n1 [Example 157, 2-(3,5-Dimethyl-1-piperidin-4-yl-1H-pyrazol-4-yl)-8-[4-(1,1-dioxido-thiomorpholin-4-ylmethyl)-phenyl]-quinoxaline] |
| 650 | > 10000 | > 10000 | Cc1cc(-c2cccc3ncc(-c4c(C)nn(C5CCNCC5)c4C)nc23)ccc1CN1CCOCC1 [Example 158, 2-(3,5-Dimethyl-1-piperidin-4-yl-1H-pyrazol-4-yl)-8-(3-methyl-4-morpholin-4-ylmethyl-phenyl)-quinoxaline] |
| < 3 | 480 | 110 | COc1ccc(-c2cnc3cccc(-c4ccc(CN5CCS(=O)(=O)CC5)cc4)c3n2)cc1N1CCN(C)CC1 [Example 161, 8-[4-(1,1-Dioxido-thiomorpholin-4-ylmethyl)-phenyl]-2-[4-methoxy-3-(4-methyl-piperazin-1-yl)-phenyl]-quinoxaline] |
| 5.7 | 360 | 69 | COc1ccc(-c2cnc3cccc(-c4cc(F)c(CN5CCOCC5)c(F)c4)c3n2)cc1N1CCN(C)CC1 [Example 162, 8-(3,5-Difluoro-4-morpholin-4-ylmethyl-phenyl)-2-[4-methoxy-3-(4-methyl-piperazin-1-yl)-phenyl]-quinoxaline] |
| < 3 | 88 | 77 | COc1ccc(-c2cnc3cccc(-c4cc(F)c(CN5CCS(=O)(=O)CC5)c(F)c4)c3n2)cc1N1CCN(C)CC1 [Example 163, 8-[4-(1,1-Dioxido-thiomorpholin-4-ylmethyl)-3,5-difluoro-phenyl]-2-[4-methoxy-3-(4-methyl-piperazin-1-yl)-phenyl]-quinoxaline] |
| 50 | 2000 | 300 | CN1CCN(C(=O)c2cccc(-c3cnc4cccc(-c5cc(F)c(CN6CCOCC6)c(F)c5)c4n3)c2)CC1 [Example 164, {3-[8-(3,5-Difluoro-4-morpholin-4-ylmethyl-phenyl)-quinoxalin-2-yl]-phenyl}-(4-methyl-piperazin-1-yl)-methanone] |
| 74 | 1200 | 160 | CN1CCN(C(=O)c2cccc(-c3cnc4cccc(-c5ccc(CN6CCS(=O)(=O)CC6)cc5)c4n3)c2)CC1 [Example 165, (3-{8-[4-(1,1-Dioxido-thiomorpholin-4-ylmethyl)-phenyl]-quinoxalin-2-yl}-phenyl)-(4-methyl-piperazin-1-yl)-methanone] |
| 11 | 270 | 70 | CN1CCN(C(=O)c2cccc(-c3cnc4cccc(-c5cc(F)c(CN6CCS(=O)(=O)CC6)c(F)c5)c4n3)c2)CC1 [Example 166, (3-{8-[4-(1,1-Dioxido-thiomorpholin-4-ylmethyl)-3,5-difluoro-phenyl]-quinoxalin-2-yl}-phenyl)-(4-methyl-piperazin-1-yl)-methanone] |
| 8.1 | 180 | 53 | CN1CCN(C(=O)c2cc(-c3cnc4cccc(-c5cc(F)c(CN6CCOCC6)c(F)c5)c4n3)cn2C)CC1 [Example 167, {4-[8-(3,5-Difluoro-4-morpholin-4-ylmethyl-phenyl)-quinoxalin-2-yl]-1-methyl-1H-pyrrol-2-yl}-(4-methyl-piperazin-1-yl)-methanone] |

| Compound | IC50 (GST-JAK2(808-1132)) [nM] | IC50 (GST-TYK2(888-1187)) [nM] | IC50 (GST-JAK1(866-1154)) [nM] |
| --- | --- | --- | --- |
| Cc1nn(C2CCNCC2)c(C)c1-c1cnc2cccc(-c3ccc(CN4CCOCC4)cc3)c2n1 [Example 156, 2-(3,5-Dimethyl-1-piperidin-4-yl-1H-pyrazol-4-yl)-8-(4-morpholin-4-ylmethyl-phenyl)-quinoxaline] | 950 | > 10000 | > 10000 |
